The results in this text go back to ChEMBL document CHEMBL3638691, “Quinoline derivatives and MELK inhibitors containing the same” (2015).

“And” between values parts separate entries of the source, which are not always exact repeats. Equal values may be shown once.

This experiment has as its target Maternal embryonic leucine zipper kinase (Homo sapiens, UniProt Q14680). In words: Kinase Assay: MELK activity was determined in the presence or absence of compounds using fluorescein isothiocyanate-labeled (FITC-labeled) histone H3 peptide as a substrate. The extent of FITC-labeled histone H3 peptide phosphorylation was measured by immobilized metal ion affinity-based fluorescence polarization (IMAP) technology (Sportsman J R, et al., Assay Drug Dev. Technol. 2: 205-14, 2004) using IMAP FP Progressive Binding System (Molecular Devices Corporation). Test compounds were dissolved in DMSO at 12.5 mM and then serially diluted as the DMSO concentration in the assays to be 1%. The serially diluted compounds, 0.8 ng/micro-L PBK (Carna Biosciences) and 100 nM FITC-labeled histone H3 peptide were reacted in a reaction buffer (20 mM HEPES, 0.01% Tween-20, 0.3 mM MgCl2, 2 mM dithiothreitol, 50 micro-M ATP, pH 7.4) at room temperature for 1 hour. The reaction was stopped by the addition of three fold assay volume of progressive binding solution. Following 0.5 hour incubation at room temperature. (In fluorescence polarisation assays a small probe gives low polarisation when free and higher when bound to something large.)

Chain of Maternal embryonic leucine zipper kinase (Q14680 whole entry): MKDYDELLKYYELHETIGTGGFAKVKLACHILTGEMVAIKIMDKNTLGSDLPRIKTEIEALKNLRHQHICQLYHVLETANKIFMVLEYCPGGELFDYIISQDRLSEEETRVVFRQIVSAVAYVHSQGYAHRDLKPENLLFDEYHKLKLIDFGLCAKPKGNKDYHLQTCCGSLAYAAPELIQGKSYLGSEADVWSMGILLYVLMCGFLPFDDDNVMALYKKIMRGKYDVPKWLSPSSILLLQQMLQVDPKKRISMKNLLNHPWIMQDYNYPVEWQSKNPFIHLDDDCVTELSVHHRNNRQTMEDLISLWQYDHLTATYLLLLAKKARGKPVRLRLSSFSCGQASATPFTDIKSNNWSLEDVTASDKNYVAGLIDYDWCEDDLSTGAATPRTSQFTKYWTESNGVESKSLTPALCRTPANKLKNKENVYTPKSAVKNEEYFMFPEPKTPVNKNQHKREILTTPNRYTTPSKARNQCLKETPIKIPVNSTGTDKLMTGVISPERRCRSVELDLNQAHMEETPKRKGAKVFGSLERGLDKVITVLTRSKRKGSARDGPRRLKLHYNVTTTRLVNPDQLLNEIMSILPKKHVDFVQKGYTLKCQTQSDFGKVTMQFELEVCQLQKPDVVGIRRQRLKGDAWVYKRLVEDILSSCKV

Broadly, the IC50 is the concentration needed to halve the response being measured. As to `O=C(c1cnc2ccc(-c3cc(Cl)c(O)c(Cl)c3)cc2c1N1CCC(CCN2CCCC2)CC1)C1CC1`, the IC50 is 2.3 nM.

On to `CN(C)CC1CCN(c2c(C(=O)C3CC3)cnc3ccc(-c4ccc5c(c4)CC(=O)N5)cc23)CC1`, for which the half-inhibitory concentration (IC50) came to 660 nM.

Turning to `CN(C)C1CCN(c2ccc(Nc3c(S(C)(=O)=O)cnc4ccc(-c5cc(Cl)c(O)c(Cl)c5)cc34)cn2)C1` (stereo not drawn), the IC50 amounted to 2.4 nM.

Turning to `CC(=O)c1cnc2ccc(-c3cc(Cl)c(O)c(Cl)c3)cc2c1N[C@H]1CC[C@H](CN2CCN(C)CC2)CC1`, the half-maximal inhibitory concentration (IC50) worked out at 5.5 nM.

`CCN(CC)CCO[C@H]1CC[C@H](Nc2c(C(C)=O)cnc3ccc(-c4cc(Cl)c(O)c(Cl)c4)cc23)CC1` returned an IC50 of 2.9 nM.

Regarding `Cc1cc(O)c(Cl)cc1-c1ccc2ncc(C(=O)C3CC3)c(N3CCC(CN(C)C)CC3)c2c1`, the IC50 turned out to be 60 nM.

For `CN1CCN(C[C@H]2CC[C@H](Nc3c(C(=O)C4CC4)cnc4ccc(-c5cc(Cl)c(O)c(Cl)c5)cc34)CC2)CC1`, the half-inhibitory concentration (IC50) is 4.2 nM and 2.8 nM.

In turn, `CS(=O)(=O)c1cnc2ccc(-c3cc(Cl)c(O)c(Cl)c3)cc2c1Nc1cccc(CCN2CCCC2)c1` came in with an IC50 of 2 nM.

As for `CC(=O)c1cnc2ccc(-c3cc(Cl)c(O)c(Cl)c3)cc2c1N[C@H]1CC[C@H](CN(C)C)CC1`, the half-inhibitory concentration (IC50) amounted to 3.1 nM. Against the preceding molecule, the IC50 is about 1.6-fold higher.

On to `CN(C)Cc1ccc(Nc2c([S+](C)[O-])cnc3ccc(-c4cc(Cl)c(O)c(Cl)c4)cc23)cc1` (stereo not drawn), for which the IC50 came to 8.2 nM.

With `N#Cc1ncc(-c2ccc3ncc(C(=O)C4CC4)c(Nc4ccc(CN)cc4)c3c2)cn1`, the half-maximal inhibitory concentration (IC50) amounted to 1.3 nM.

As to `CS(=O)(=O)c1cnc2ccc(-c3cc(Cl)c(O)c(Cl)c3)cc2c1N[C@H]1CC[C@H](CN2CCCC2)CC1`, the IC50 was 2.7 nM.

`CC(=O)c1cnc2cc(C)c(-c3cc(Cl)c(O)c(Cl)c3)cc2c1N[C@H]1CC[C@H](CN2CCC(N)C2)CC1` (stereo partly drawn) displayed an IC50 of 55 nM.

Molecule `CN(C)CC1CCN(c2c(C(=O)C3CC3)cnc3ccc(-c4ccc(OC(F)F)cc4)cc23)CC1` yielded an IC50 of 630 nM.

`CC(N)C(=O)N[C@H]1CC[C@H](Nc2c(C(=O)C(C)(C)C)cnc3ccc(-c4cc(Cl)c(O)c(Cl)c4)cc23)CC1` (stereo partly drawn) came in with an IC50 of 15 nM.

`CC(=O)c1cnc2ccc(-c3cc(Cl)c(O)c(Cl)c3)cc2c1N[C@H]1CC[C@H](NC(=O)[C@@H](N)C(C)(C)C)CC1` showed a half-inhibitory concentration (IC50) of 4.2 nM.

`CC(=O)c1cnc2ccc(-c3cnc(C#N)nc3)cc2c1Nc1ccc(CN(C)C)cc1`: the IC50 was found to be 2.2 nM. Against the preceding molecule, the IC50 is about 1.9-fold lower.

For `CN(C)C[C@H]1CC[C@H](Nc2c(C(=O)C3CCCC3)cnc3ccc(-c4cc(Cl)c(O)c(Cl)c4)cc23)CC1`, the IC50 turned out to be 3 nM.

`COc1cc(-c2ccc3ncc(C#N)c(N[C@H]4CC[C@H](N(C)C)CC4)c3c2)cc(Cl)c1O` displayed an IC50 of 1.8 nM.

As to `CN(C)C1CCN(C[C@H]2CC[C@H](Nc3c(C(=O)C4CC4)cnc4ccc(-c5cc(Cl)c(O)c(Cl)c5)cc34)CC2)C1` (stereo partly drawn), the IC50 turned out to be 3 nM.

For the molecule `CN(C)C[C@H]1CC[C@H](Nc2c(C(=O)C(C)(C)C)cnc3ccc(-c4cc(Cl)c(O)c(Cl)c4)cc23)CC1`, the IC50 is 22 nM.

`O=C(c1cnc2ccc(-c3cc(Cl)c(O)c(Cl)c3)cc2c1Nc1cccc(CCN2CCCC2)c1)C1CCCC1` had an IC50 of 9.6 nM.

With `CN(C)C1CCN(Cc2ccc(Nc3c(C(=O)C4CC4)cnc4ccc(-c5cc(Cl)c(O)c(Cl)c5)cc34)cc2)C1` (stereo not drawn), the 50% inhibitory concentration (IC50) was 7.2 nM and 5.6 nM.

In the case of `COc1cc(-c2ccc3ncc(C(=O)C4CC4)c(Nc4ccc(C5CCCN5C)cn4)c3c2)cc(Cl)c1O` (stereo not drawn), the IC50 amounted to 36 nM.

`O=C(c1cnc2ccc(-c3cc(Cl)c(O)c(Cl)c3)cc2c1N[C@H]1CC[C@H](CN2CCCC2)CC1)C1CC1` came in with a half-maximal inhibitory concentration (IC50) of 1.4 nM.

`CC(=O)c1cnc2ccc(-c3cc(Cl)c(O)c(Cl)c3)cc2c1N[C@H]1CCC[C@@H](CN2CCN(C)CC2)C1` showed a 50% inhibitory concentration (IC50) of 2.7 nM.

Molecule `O=C(c1cnc2ccc(-c3cc(Cl)c(O)c(Cl)c3)cc2c1Nc1ccc(CN2CCOCC2)cc1)C1CC1` had an IC50 of 20 nM. Against the preceding molecule, the IC50 is about 7.4-fold higher.

The molecule `CC(=O)c1cnc2ccc(-c3cc(Cl)c(O)c(Cl)c3)cc2c1Nc1ccc(S(=O)(=O)N2CCN(C)CC2)cc1` showed an IC50 of 36 nM.
